# Data taken from ChEMBL document CHEMBL4017472, “New modified 2-aminobenzimidazole nucleosides: Synthesis and evaluation of their activity against herpes simplex virus type 1” (Bioorg Med Chem Lett, 2017).
# Experiments:
# [1] = tested on: Human alphaherpesvirus 1; assay: Antiviral activity against foscarnet-resistant HSV-1 F+ infected in African green monkey Vero E6 cells assessed as reduction in virus-induced cytopathic effect; type: functional; details: Human alphaherpesvirus 1, F+, Vero C1008
# [2] = tested on: Human alphaherpesvirus 1; assay: Antiviral activity against acyclovir and cidofovir-resistant HSV-1 L2 infected in African green monkey Vero E6 cells assessed as reduction in virus-induced cytopathic effect; type: functional; details: Human alphaherpesvirus 1, L2, Vero C1008
# [3] = tested on: Human alphaherpesvirus 1; assay: Antiviral activity against acyclovir and cidofovir-resistant HSV-1 L2 infected in African green monkey Vero E6 cells assessed as viral reproduction at 52 uM measured after 48 hrs post infection by gentian violet staining based plaque reduction assay (reference value: 6.52 +/- 0.11 log10PFU/ml); type: functional, Vero C1008
# [4] = tested on: Human alphaherpesvirus 1; assay: Antiviral activity against acyclovir and foscarnet-resistant HSV-1 L2 infected in African green monkey Vero E6 cells assessed as viral reproduction at 104 uM measured after 48 hrs post infection by gentian violet staining based plaque reduction assay (reference value: 5.92 +/- 0.11 log10PFU/ml); type: functional, Vero C1008
# [5] = tested on: Human alphaherpesvirus 1; assay: Antiviral activity against HSV-1 L2 infected in African green monkey Vero E6 cells assessed as viral reproduction at 207 uM measured after 48 hrs post infection by gentian violet staining based plaque reduction assay (reference value: 6.91 +/- 0.05 log10PFU/ml); type: functional, Vero C1008
# [6] = tested on: Human alphaherpesvirus 1; assay: Antiviral activity against acyclovir-resistant HSV-1 L2 infected in African green monkey Vero E6 cells assessed as viral reproduction at 207 uM measured after 48 hrs post infection by gentian violet staining based plaque reduction assay (reference value: 5.95 +/- 0.03 log10PFU/ml); type: functional, Vero C1008
# [7] = tested on: Human alphaherpesvirus 1; assay: Antiviral activity against acyclovir-resistant HSV-1 L2 infected in African green monkey Vero E6 cells assessed as viral reproduction at 415 uM measured after 48 hrs post infection by gentian violet staining based plaque reduction assay (reference value: 5.95 +/- 0.03 log10PFU/ml); type: functional, Vero C1008
# [8] = tested on: Human alphaherpesvirus 1; assay: Antiviral activity against HSV-1 L2/Rp-ACV/2 infected in African green monkey Vero E6 cells assessed as viral reproduction at 415 uM measured after 48 hrs post infection by gentian violet staining based plaque reduction assay (reference value: 6.05 +/- 0.1 log10PFU/ml); type: functional, Vero C1008
# [9] = tested on: Human alphaherpesvirus 1; assay: Antiviral activity against acyclovir and foscarnet-resistant HSV-1 L2 infected in African green monkey Vero E6 cells assessed as viral reproduction at 415 uM measured after 48 hrs post infection by gentian violet staining based plaque reduction assay (reference value: 5.92 +/- 0.11 log10PFU/ml); type: functional, Vero C1008
# [10] = tested on: Human alphaherpesvirus 1; assay: Antiviral activity against acyclovir-resistant HSV-1 L2 infected in African green monkey Vero E6 cells assessed as inhibition of viral reproduction measured after 48 hrs post infection by gentian violet staining based plaque reduction assay; type: functional; details: Vero C1008
# [11] = tested on: Human alphaherpesvirus 1; assay: Antiviral activity against HSV-1 L2/Rp-ACV/2 infected in African green monkey Vero E6 cells assessed as inhibition of viral reproduction measured after 48 hrs post infection by gentian violet staining based plaque reduction assay; type: functional; details: Vero C1008
# [12] = tested on: Human alphaherpesvirus 1; assay: Antiviral activity against acyclovir and cidofovir-resistant HSV-1 L2 infected in African green monkey Vero E6 cells assessed as inhibition of viral reproduction measured after 48 hrs post infection by gentian violet staining based plaque reduction assay; type: functional; details: Vero C1008
smiles,measurement,setting,value
Nc1nc2cc(F)c(F)cc2n1[C@@H]1O[C@H](CO)[C@@H](O)[C@H]1O,IC50,[1],208 µM
same,IC95,[1],830 µM
same,IC50,[2],208 µM
same,IC95,[2],830 µM
same,Activity,[3],5.71 log10PFU/ml
same,Activity,[4],4.8 log10PFU/ml
same,Activity,[5],5.16 log10PFU/ml
same,Activity,[6],4.15 log10PFU/ml
same,Activity,[7],3.45 log10PFU/ml
same,Activity,[8],4.06 log10PFU/ml
same,Activity,[9],4.02 log10PFU/ml
same,inhibition,[10],Dose-dependent effect
same,inhibition,[11],Dose-dependent effect
same,inhibition,[12],Dose-dependent effect
